Test results reported in DBAASP.
Converted amounts (≈) assume the structure as drawn.

How the values were obtained:
Test in all cases: ≥ marks a high value that may be exact or a test limit, other limits are often not marked, values filed in µg/mL are converted to µM
[1] = tested on: Bacillus cereus
[2] = tested on: Escherichia coli
[3] = tested on: Staphylococcus aureus

Row | Structure (SMILES) | MIC [1] [µM] | MIC [2] [µM] | MIC [3] [µM]
1 | CC(C)C[C@H](NC(=O)[C@H](CCCCN)NC(=O)[C@H](Cc1ccccc1)NC(=O)[C@@H](NC(=O)[C@H](CCCCN)NC(=O)[C@H](CCCCN)NC(=O)[C@H](CC(C)C)NC(=O)[C@@H](N)Cc1ccccc1)C(C)C)C(=O)N[C@@H](C)C(=O)N[C@@H](CO)C(=O)N[C@@H](CCCCN)C(=O)N[C@H](C(=O)N[C@@H](Cc1ccccc1)C(=O)N1CCC[C@H]1C(=O)N[C@@H](C)C(=O)N[C@H](C(=O)N[C@@H](Cc1ccccc1)C(=O)NCC(=O)N[C@@H](CCCCN)C(=O)N[C@H](C(=O)O)C(C)C)C(C)C)C(C)C [FLKKVFKLASKVFPAVFGKV] | 14.2 (≈ 32 µg/mL) | 1.77 (≈ 4 µg/mL) | 28.4 (≈ 64 µg/mL)
2 | CC(C)C[C@H](NC(=O)[C@@H](N)Cc1ccccc1)C(=O)N[C@@H](CCCCN)C(=O)N[C@H](C(=O)N[C@H](C(=O)N[C@@H](Cc1ccccc1)C(=O)N[C@@H](CCCCN)C(=O)N[C@@H](CCCCN)C(=O)N[C@@H](C)C(=O)N[C@@H](CO)C(=O)N[C@@H](CCCCN)C(=O)N[C@H](C(=O)N[C@@H](Cc1ccccc1)C(=O)N1CCC[C@H]1C(=O)N[C@@H](C)C(=O)N[C@H](C(=O)N[C@@H](Cc1ccccc1)C(=O)NCC(=O)N[C@@H](CCCCN)C(=O)N[C@H](C(=O)O)C(C)C)C(C)C)C(C)C)C(C)C)C(C)C [FLKVVFKKASKVFPAVFGKV] | ≥ 57.1 | 57.1 (≈ 128 µg/mL) | > 57.1
3 | CC(C)C[C@H](NC(=O)[C@H](CCCCN)NC(=O)[C@H](Cc1ccccc1)NC(=O)[C@@H](NC(=O)[C@@H](NC(=O)[C@H](CCCCN)NC(=O)[C@H](CC(C)C)NC(=O)[C@@H](N)Cc1ccccc1)C(C)C)C(C)C)C(=O)N[C@@H](C)C(=O)N[C@@H](CO)C(=O)N[C@@H](CCCCN)C(=O)N[C@H](C(=O)N[C@@H](Cc1ccccc1)C(=O)NCC(=O)N[C@@H](C)C(=O)N[C@H](C(=O)N[C@@H](Cc1ccccc1)C(=O)NCC(=O)N[C@@H](CCCCN)C(=O)N[C@H](C(=O)O)C(C)C)C(C)C)C(C)C [FLKVVFKLASKVFGAVFGKV] | 7.32 (≈ 16 µg/mL) | 58.6 (≈ 128 µg/mL) | 7.32 (≈ 16 µg/mL)
4 | CC(C)[C@H](N)C(=O)N[C@H](C(=O)N[C@@H](Cc1ccccc1)C(=O)N[C@@H](CCCN=C(N)N)C(=O)N[C@H](C(=O)N[C@@H](C)C(=O)N[C@@H](CO)C(=O)N[C@@H](CCCCN)C(=O)N[C@H](C(=O)N[C@@H](Cc1ccccc1)C(=O)N1CCC[C@H]1C(=O)N[C@@H](C)C(=O)N[C@H](C(=O)N[C@@H](Cc1ccc(O)cc1)C(=O)N[C@@H](CS)C(=O)N[C@H](C(=O)N[C@H](C(=O)N[C@@H](CO)C(=O)N[C@@H](CCCCN)C(=O)N[C@@H](CCCCN)C(=O)O)C(C)C)[C@@H](C)O)C(C)C)C(C)C)C(C)C)C(C)C [VVFRVASKVFPAVYCTVSKK] | ≥ 115 | 57.4 (≈ 128 µg/mL) | 
5 | CC[C@H](C)[C@H](NC(=O)[C@@H](NC(=O)[C@H](C)NC(=O)[C@H](C)NC(=O)[C@@H](NC(=O)[C@H](CCCN=C(N)N)NC(=O)[C@H](CO)NC(=O)[C@H](CO)NC(=O)[C@@H](NC(=O)[C@@H](NC(=O)[C@H](CC(C)C)NC(=O)[C@@H](NC(=O)[C@H](Cc1ccccc1)NC(=O)[C@@H]1CCCN1C(=O)[C@H](CO)NC(=O)[C@@H](N)CCCCN)C(C)C)C(C)C)C(C)C)C(C)C)C(C)C)C(=O)N[C@@H](CCCCN)C(=O)N[C@@H](CO)C(=O)N[C@@H](CC(C)C)C(=O)N1CCC[C@H]1C(=O)O [KSPFVLVVSSRVAAVIKSLP] | ≥ 122 | > 122 | 
6 | CC(C)[C@H](NC(=O)[C@H](CO)NC(=O)[C@@H](NC(=O)[C@H](CCCCN)NC(=O)[C@H](C)NC(=O)[C@@H](NC(=O)[C@@H](NC(=O)[C@H](CCCCN)NC(=O)[C@@H](NC(=O)[C@H](Cc1ccccc1)NC(=O)[C@H](CO)NC(=O)[C@H](CS)NC(=O)[C@@H]1CCCN1C(=O)[C@H](Cc1ccc(O)cc1)NC(=O)[C@H](CO)NC(=O)CNC(=O)[C@H](CCCCN)NC(=O)CNC(=O)[C@@H](NC(=O)[C@@H](N)CCCCN)C(C)C)C(C)C)C(C)C)C(C)C)C(C)C)C(=O)O [KVGKGSYPCSFVKVVAKVSV] | ≥ 123 | > 123 | 
